One block for each compound: values may come before it.
Legend:
[1] = biological target: T1, Proprotein convertase subtilisin/kexin type 9 (Homo sapiens, UniProt Q8NBP7); test: Inhibition of full length human PCSK9 expressed in human Huh-7 cells at 20 uM by ELISA analysis relative to control; assay type: cell-based
[2] = (§1) Cytotoxicity against rat Bone marrow cell assessed as inhibition of cell growth with (R)-4-(3H-[1,2,3]triazolo[4,5-b]pyridin-3-yl)-N-(3-chloropyridin-2-yl)-N-(piperidin-3-yl) benzamide as high potent effect standard by celltiter-glo assay; assay type: toxicity, cell-based; conditions: rat, rat bone marrow cells
[3] = biological target: T1, Proprotein convertase subtilisin/kexin type 9; test: Inhibition of full length human PCSK9 expressed in human Huh-7 cells by ELISA analysis; assay type: cell-based
[4] = Cytotoxicity against rat Bone marrow cell assessed as inhibition of cell growth with puromycin as high potent effect standard by celltiter-glo assay; assay type: toxicity, cell-based; conditions: rat bone marrow cells
[5] = Selectivity index, ratio of IC50 for cytotoxicity against rat Bone marrow cell assessed as inhibition of cell growth by celltiter-glo assay to IC50 for inhibition of full length human PCSK9 expressed in human Huh-7 cells by ELISA analysis
Bone marrow cell = test: as §1; assay type: toxicity, cell-based; conditions: bone marrow cell

T1 sequence (Q8NBP7 31-152 limits assumed): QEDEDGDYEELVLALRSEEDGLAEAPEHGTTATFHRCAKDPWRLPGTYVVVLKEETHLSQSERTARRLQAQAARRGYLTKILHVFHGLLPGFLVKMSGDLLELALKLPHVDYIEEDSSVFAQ
T1 sequence (Q8NBP7 153-692 limits assumed): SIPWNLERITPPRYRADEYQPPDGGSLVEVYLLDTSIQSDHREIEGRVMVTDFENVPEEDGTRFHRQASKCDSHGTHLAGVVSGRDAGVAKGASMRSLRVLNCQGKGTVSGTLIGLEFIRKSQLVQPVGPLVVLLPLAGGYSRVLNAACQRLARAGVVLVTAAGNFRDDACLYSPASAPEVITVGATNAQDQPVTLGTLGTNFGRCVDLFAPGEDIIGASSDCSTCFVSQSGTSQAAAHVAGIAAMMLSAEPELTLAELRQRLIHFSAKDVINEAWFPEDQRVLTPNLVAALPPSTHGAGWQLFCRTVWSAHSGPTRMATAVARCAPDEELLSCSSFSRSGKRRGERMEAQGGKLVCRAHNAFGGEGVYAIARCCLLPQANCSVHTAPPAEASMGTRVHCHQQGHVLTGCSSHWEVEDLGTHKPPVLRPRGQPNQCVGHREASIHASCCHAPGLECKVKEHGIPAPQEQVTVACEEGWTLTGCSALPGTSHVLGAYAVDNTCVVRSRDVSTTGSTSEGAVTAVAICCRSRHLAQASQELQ

SMILES: O=C(c1ccc(-n2nnc3cccnc32)cc1)N(c1nccn1C1CC1)[C@@H]1CCCNC1
IC50 [4]: 1.24 µM
IC50 [3]: 6.84 µM
Ratio IC50 [5]: 0.18

SMILES: CCc1cccnc1N(C(=O)c1ccc(-c2cnn3cccnc23)cc1)[C@@H]1CCCNC1
IC50 [3]: 3.31 µM

SMILES: O=C(c1ccc(-n2nnc3cccnc32)cc1)N(c1nccc2ccsc12)[C@@H]1CCCNC1
IC50 [4]: 0.28 µM
IC50 [3]: 0.73 µM
Ratio IC50 [5]: 0.38

SMILES: O=C(c1ccc(-c2cnn3cccnc23)cc1)N(c1ncccc1C1CC1)[C@@H]1CCCNC1
IC50 [3]: 7.74 µM

SMILES: COC(=O)NC[C@H]1CNC[C@H](N(C(=O)c2ccc(-n3nnc4cccnc43)cc2)c2ncccc2Cl)C1 (racemic)
IC50 [3]: > 20 µM

SMILES: O=C(c1ccc(-n2nnc3cccnc32)cc1)N(c1nccc2c1CCCC2)[C@@H]1CCCNC1
IC50 [4]: 0.41 µM
IC50 [3]: 2.28 µM
Ratio IC50 [5]: 0.18

SMILES: Cn1ccc2ccnc(N(C(=O)c3ccc(-n4nnc5cccnc54)cc3)[C@@H]3CCCNC3)c21
IC50 [4]: 0.04 µM
IC50 [3]: 0.58 µM
Ratio IC50 [5]: 0.07

SMILES: O=C(c1ccc(-n2nnc3cccnc32)cc1)N(c1ncccc1C(F)(F)F)[C@@H]1CCCNC1
IC50 [2]: 13.8 µM
IC50 [3]: 1.66 µM
Ratio IC50 [5]: 8.28

SMILES: N#Cc1cccnc1N(C(=O)c1ccc(-c2cnn3cccnc23)cc1)[C@@H]1CCCNC1
IC50 [3]: > 20 µM

SMILES: O=C(c1ccc(-c2cnn3cccnc23)cc1)N(c1ncccc1F)[C@@H]1CCCNC1
IC50 [3]: > 20 µM

SMILES: O=C(c1ccc(-n2nnc3cccnc32)cc1)N(c1ncccc1OC(F)(F)F)[C@@H]1CCCNC1
IC50 [2]: 6.44 µM
IC50 [3]: 5.4 µM

SMILES: Cc1cnc2c(c1)nnn2-c1ccc(C(=O)N(c2ncccc2Cl)[C@@H]2CCCNC2)nc1
IC50 [4]: 19.9 µM
IC50 [2]: 27.1 µM

Now from value to compound, other results behind:

inhibition [1]: 11%
SMILES: O=C(c1ccc(-n2nnc3cccnc32)cc1)N(c1ncccc1Cl)[C@H]1CNC[C@@H](CO)C1 (racemic)
IC50 [2]: > 100 µM

IC50 [3]: > 20 µM
SMILES: CC(=O)NC[C@H]1CNC[C@H](N(C(=O)c2ccc(-n3nnc4cccnc43)cc2)c2ncccc2Cl)C1 (racemic)

inhibition [1]: 38%
SMILES: C[C@@H]1CNC[C@H](N(C(=O)c2ccc(-n3nnc4cccnc43)cc2)c2ncccc2Cl)C1 (racemic)

IC50 [3]: 14.1 µM
SMILES: C[C@H]1CNC[C@H](N(C(=O)c2ccc(-n3nnc4cccnc43)cc2)c2ncccc2Cl)C1
IC50 (Bone marrow cell): 22 µM

IC50 [3]: 4.6 µM
SMILES: O=C(c1ccc(-n2nnc3cccnc32)cc1)N(c1ncccc1Cl)[C@H]1CNC[C@H](CO)C1
IC50 (Bone marrow cell): 7.2 µM

IC50 [3]: 17.1 µM
SMILES: C[C@@H]1CNC[C@H](N(C(=O)c2ccc(-n3nnc4cccnc43)cc2)c2ncccc2Cl)C1
IC50 (Bone marrow cell): 23.3 µM
